Earlier results as cited in patent US6391881B1, “Thiourea derivatives of dihydropyridine NPY antagonists” (Bristol-Myers Squibb Company, priority 2000, dated 2002).
Values belong to the compound of their own block, whether it stands above or below them.

What was measured:
[1] = system: NPY-induced pressor response; details: pithed rat
[2] = system: NPY-induced increase in intracellular Ca++ in SK-N-MG cells
[3] = target: T1, human neuroblastoma cells (SK-N-MC) (Homo sapiens, UniProt P25929)
T1 construct: displaces I-125 Bolton-Hunter labeled NPY in human neuroblastoma cells (SK-N-MC); host or cells: SK-N-MC human neuroblastoma cells (endogenous receptor; no transfection mentioned)
T1 sequence (P25929 1-384): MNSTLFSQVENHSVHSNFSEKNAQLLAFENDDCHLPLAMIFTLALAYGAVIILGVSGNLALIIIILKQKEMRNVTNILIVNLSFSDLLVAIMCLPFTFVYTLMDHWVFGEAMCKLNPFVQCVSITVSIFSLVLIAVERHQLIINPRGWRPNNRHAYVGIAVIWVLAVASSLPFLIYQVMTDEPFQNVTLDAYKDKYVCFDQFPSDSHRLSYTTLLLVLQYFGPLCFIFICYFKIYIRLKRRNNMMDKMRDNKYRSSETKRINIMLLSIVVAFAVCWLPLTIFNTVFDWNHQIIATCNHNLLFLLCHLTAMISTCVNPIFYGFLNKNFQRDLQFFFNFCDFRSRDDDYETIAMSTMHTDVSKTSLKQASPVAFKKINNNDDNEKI

[4] = system: NPY-induced contractions in guinea pig basilar artery
[5] = system: NPY-induced Ca++ entry in HEL cells
[6] = target: T2, human neuroblastoma cells (Homo sapiens, UniProt P25929)
T2 construct: displacing I-125 labeled NPY and PYY in human neuroblastoma cells
T2 sequence (P25929 1-384): T1 sequence (P25929 1-384)

[7] = system: NPY-related increases in diastolic blood pressure; details: anesthetized guinea pig model

displacement of I-125 Bolton-Hunter labeled NPY (in words) [3]: displaces
SMILES: NC(N)=NCCC[C@@H](NC(=O)C(c1ccccc1)c1ccccc1)C(=O)NCc1ccc(O)cc1 [BIBP 3226]
antagonism of NPY-induced pressor response (in words) [1]: antagonizing
antagonism of NPY-induced increase in intracellular Ca++ (in words) [2]: antagonized

SMILES: O=P(O)(O)OC1[C@H](OP(=O)(O)O)[C@H](O)C(O)[C@H](O)[C@H]1OP(=O)(O)O (stereo partly drawn) [D-Myo-inositol-1,2,6-triphosphate]
antagonism of NPY-induced contractions (in words) [4]: potent but non-competitive antagonist

SMILES: N=C(NCCCc1cnc[nH]1)NCCC(c1cc(F)cc(F)c1)c1ccccn1 (centres unmarked) [He 90481]
antagonism of NPY-induced Ca++ entry (in words) [5]: weak but competitive antagonist
pA2, antagonism of NPY-induced Ca++ entry [5]: 4.43

displacement of I-125 labeled NPY and PYY (in words) [6]: displacing
SMILES: CN(C)CC1CCC(CN=C(N)c2ccc(C[C@@H](NC(=O)[C@@H](Cc3ccccc3)NS(=O)(=O)c3ccc4ccccc4c3)C(=O)N3CCCC3)cc2)CC1 (some centres unmarked) [SR 120819A]
antagonism of NPY-related increases in diastolic blood pressure (in words) [7]: antagonized
